In ChEMBL document CHEMBL4138123, “Design, synthesis and biological evaluation of novel pyrazolochalcones as potential modulators of PI3K/Akt/mTOR pathway and inducers of apoptosis in breast cancer cells” (Eur J Med Chem, 2017):
pIC50: −log10 of the molar value.

Columns and labels:
HL-60(TB) = experiment: Cytotoxicity against human HL-60(TB) cells assessed as growth inhibition after 48 hrs by sulforhodamine B assay; type: functional; conditions: HL-60, 48 h
HOP-62 [1] = experiment: Cytotoxicity against human HOP62 cells assessed as growth inhibition after 48 hrs by sulforhodamine B assay; type: functional; conditions: HOP-62, 48 h
NCI-H23 = experiment: Cytotoxicity against human NCI-H23 cells assessed as growth inhibition after 48 hrs by sulforhodamine B assay; type: functional; conditions: NCI-H23, 48 h
U-251 = experiment: Cytotoxicity against human U251 cells assessed as growth inhibition after 48 hrs by sulforhodamine B assay; type: functional; conditions: U-251, 48 h
BT-549 [2] = experiment: Cytotoxicity against human BT549 cells assessed as growth inhibition after 48 hrs by sulforhodamine B assay; type: functional; conditions: BT-549, 48 h
T47D [3] = experiment: Cytotoxicity against human T47D cells assessed as growth inhibition after 48 hrs by sulforhodamine B assay; type: functional
MDA-MB-468 = experiment: Cytotoxicity against human MDA-MB-468 cells assessed as growth inhibition after 48 hrs by sulforhodamine B assay; type: functional; conditions: MDA-MB-468, 48 h
MCF7 = experiment: Cytotoxicity against human MCF7 cells assessed as growth inhibition after 48 hrs by MTT assay; type: functional, cell-based; conditions: MCF7, 48 h
OVCAR-5 = experiment: Cytotoxicity against human OVCAR5 cells assessed as cell growth at 0.01 uM after 48 hrs by sulforhodamine B assay relative to control; type: functional; conditions: OVCAR-5, 48 h, read-out: Activity
OVCAR-4 [4] = experiment: Cytotoxicity against human OVCAR4 cells assessed as cell growth at 0.01 uM after 48 hrs by sulforhodamine B assay relative to control; type: functional; conditions: OVCAR-4, 48 h, read-out: Activity
HCC 2998 = experiment: Cytotoxicity against human HCC2998 cells assessed as cell growth at 0.01 uM after 48 hrs by sulforhodamine B assay relative to control; type: functional; conditions: HCC 2998, 48 h, read-out: Activity
MOLT-4 = experiment: Cytotoxicity against human MOLT4 cells assessed as cell growth at 0.01 uM after 48 hrs by sulforhodamine B assay relative to control; type: functional; conditions: MOLT-4, 48 h, read-out: Activity
PC-3 [5] = experiment: Cytotoxicity against human PC3 cells assessed as cell growth at 0.01 uM after 48 hrs by sulforhodamine B assay relative to control; type: functional; conditions: PC-3, 48 h, read-out: Activity
NCI-H460 = experiment: Cytotoxicity against human NCI-H460 cells assessed as cell growth at 0.1 uM after 48 hrs by sulforhodamine B assay relative to control; type: functional; conditions: NCI-H460, 48 h, read-out: Activity
SF-268 = experiment: Cytotoxicity against human SF268 cells assessed as cell growth at 0.1 uM after 48 hrs by sulforhodamine B assay relative to control; type: functional; conditions: SF-268, 48 h, read-out: Activity
T47D [6] = experiment: Cytotoxicity against human T47D cells assessed as cell growth at 0.1 uM after 48 hrs by sulforhodamine B assay relative to control; type: functional; conditions: read-out: Activity
HCT-15 [7] = experiment: Cytotoxicity against human HCT15 cells assessed as cell growth at 1 uM after 48 hrs by sulforhodamine B assay relative to control; type: functional; conditions: HCT-15, 48 h, read-out: Activity
IGROV-1 = experiment: Cytotoxicity against human IGROV1 cells assessed as cell growth at 1 uM after 48 hrs by sulforhodamine B assay relative to control; type: functional; conditions: IGROV-1, 48 h, read-out: Activity
BT-549 [8] = experiment: Cytotoxicity against human BT549 cells assessed as cell growth at 1 uM after 48 hrs by sulforhodamine B assay relative to control; type: functional; conditions: BT-549, 48 h, read-out: Activity
NCI-H226 = experiment: Cytotoxicity against human NCI-H226 cells assessed as cell growth at 10 uM after 48 hrs by sulforhodamine B assay relative to control; type: functional; conditions: NCI-H226, 48 h, read-out: Activity
NCI-H522 = experiment: Cytotoxicity against human NCI-H522 cells assessed as cell growth at 10 uM after 48 hrs by sulforhodamine B assay relative to control; type: functional; conditions: NCI-H522, 48 h, read-out: Activity
SF-539 = experiment: Cytotoxicity against human SF539 cells assessed as cell growth at 10 uM after 48 hrs by sulforhodamine B assay relative to control; type: functional; conditions: SF-539, 48 h, read-out: Activity
SK-MEL-5 = experiment: Cytotoxicity against human SK-MEL-5 cells assessed as cell growth at 10 uM after 48 hrs by sulforhodamine B assay relative to control; type: functional; conditions: SK-MEL-5, 48 h, read-out: Activity
Hs-578T = experiment: Cytotoxicity against human Hs 578T cells assessed as cell growth at 10 uM after 48 hrs by sulforhodamine B assay relative to control; type: functional; conditions: read-out: Activity
HOP-62 [9] = experiment: Cytotoxicity against human HOP62 cells assessed as cell growth at 100 uM after 48 hrs by sulforhodamine B assay relative to control; type: functional; conditions: HOP-62, 48 h, read-out: Activity
HCT-116 = experiment: Cytotoxicity against human HCT116 cells assessed as cell growth at 100 uM after 48 hrs by sulforhodamine B assay relative to control; type: functional; conditions: HCT-116, 48 h, read-out: Activity
HCT-15 [10] = experiment: Cytotoxicity against human HCT15 cells assessed as cell growth at 100 uM after 48 hrs by sulforhodamine B assay relative to control; type: functional; conditions: HCT-15, 48 h, read-out: Activity
OVCAR-4 [11] = experiment: Cytotoxicity against human OVCAR4 cells assessed as cell growth at 100 uM after 48 hrs by sulforhodamine B assay relative to control; type: functional; conditions: OVCAR-4, 48 h, read-out: Activity
OVCAR-8 = experiment: Cytotoxicity against human OVCAR8 cells assessed as cell growth at 100 uM after 48 hrs by sulforhodamine B assay relative to control; type: functional; conditions: OVCAR-8, 48 h, read-out: Activity
SK-OV-3 = experiment: Cytotoxicity against human SKOV3 cells assessed as cell growth at 100 uM after 48 hrs by sulforhodamine B assay relative to control; type: functional; conditions: SK-OV-3, 48 h, read-out: Activity
786-0 = experiment: Cytotoxicity against human 786-0 cells assessed as cell growth at 100 uM after 48 hrs by sulforhodamine B assay relative to control; type: functional; conditions: 786-0, 48 h, read-out: Activity
PC-3 [12] = experiment: Cytotoxicity against human PC3 cells assessed as cell growth at 100 uM after 48 hrs by sulforhodamine B assay relative to control; type: functional; conditions: PC-3, 48 h, read-out: Activity
DU-145 = experiment: Cytotoxicity against human DU145 cells assessed as cell growth at 100 uM after 48 hrs by sulforhodamine B assay relative to control; type: functional; conditions: DU-145, 48 h, read-out: Activity
T47D [13] = experiment: Cytotoxicity against human T47D cells assessed as cell growth at 100 uM after 48 hrs by sulforhodamine B assay relative to control; type: functional; conditions: read-out: Activity

## COc1ccc(C(=O)/C=C/c2cc(-c3ccc(OC)c(OC)c3)n[nH]2)cc1OC
HL-60(TB)
  GI50: 2760 nM
  TGI: > 100000 nM
HOP-62 [1]
  GI50: 1730 nM
  TGI: 5600 nM
NCI-H23
  GI50: 2250 nM
  TGI: 5700 nM
NCI-H23; read-out: LC50 (the source's name)
  CC50: > 100000 nM
U-251
  GI50: 1200 nM
  TGI: 2630 nM
BT-549 [2]
  GI50: 1440 nM
  TGI: 2920 nM
T47D [3]
  GI50: 1360 nM
  TGI: 6650 nM
MDA-MB-468
  GI50: 1090 nM
  TGI: 2550 nM
MCF7
  pIC50: 6.10
OVCAR-5
  growth at 0.01 µM: 88%
OVCAR-4 [4]
  growth at 0.01 µM: 106%
HCC 2998
  growth at 0.01 µM: 107%
MOLT-4
  growth at 0.01 µM: 103%
PC-3 [5]
  growth at 0.01 µM: 99%
NCI-H460
  growth at 0.1 µM: 99%
SF-268
  growth at 0.1 µM: 95%
T47D [6]
  growth at 0.1 µM: 86%
HCT-15 [7]
  growth at 1 µM: 53%
IGROV-1
  growth at 1 µM: 94%
BT-549 [8]
  growth at 1 µM: 75%
NCI-H226
  growth at 10 µM: -46%
NCI-H522
  growth at 10 µM: -56%
SF-539
  growth at 10 µM: -51%
SK-MEL-5
  growth at 10 µM: -97%
Hs-578T
  growth at 10 µM: 23%
HOP-62 [9]
  growth at 100 µM: -13%
HCT-116
  growth at 100 µM: -45%
HCT-15 [10]
  growth at 100 µM: -10%
OVCAR-4 [11]
  growth at 100 µM: -40%
OVCAR-8
  growth at 100 µM: -15%
SK-OV-3
  growth at 100 µM: -8%
786-0
  growth at 100 µM: -32%
PC-3 [12]
  growth at 100 µM: -4%
DU-145
  growth at 100 µM: -100%
T47D [13]
  growth at 100 µM: -9%
